# Source: patent publication US20250019398A1, “NONAMERIC PEPTIDE HAVING EXCELLENT ANTIBACTERIAL ACTIVITY AGAINST GRAM-NEGATIVE BACTERIA AND ENANTIOMER THEREOF” (priority 2021, published 2025)
# Like-named read-outs stand apart in the source and are kept apart here.
# Key:
# [1] = system: Escherichia coli KCTC 1682; assay: MIC, broth dilution; assay type: cell-based; settings: standard Gram-negative bacteria, 16 hours, read-out: Minimal inhibitory concentration (MIC), E. coli
# Excerpt: (§1) In addition, carbapenem-resistant E. coli NCCP16044 and carbapenem-resistant Klebsiella pneumonia NCCP 15782 were obtained from the NCCP, and three types of carbapenem-resistant A. baumanii CCARM 12004-6 were obtained from the Culture Collection of Antimicrobial Resistance Microbes (CCARM) (Cheongju City, Korea). The E. coli K1 (ATCC700973) strain used in the animal experiments was obtained from the American Type Culture Collection (ATCC) ([…]).
# (§2) The antimicrobial activities of the peptides were measured by a minimal inhibitory concentration (MIC) analysis. The MIC was determined using a broth dilution method. All bacterial strains were grown overnight at 37° C. in a Muller-Hinton (MH) medium.
# [2] = system: carbapenem-resistant E. coli NCCP16044 (CREC 16044); assay: microbe, parasite or virus in culture; assay type: cell-based; settings: 16 hours, read-out: Minimal inhibitory concentration (MIC), CREC 16044
# Excerpt: as §1, with “Among the bacterial strains used in the experiment, Escherichia coli KCTC 1682 was obtained from the Korean Collection for Type Cultures (KCTC) (Jeongeup, Korea), Acinetobacter baumannii KCCM 40203 and Pseudomonas aeruginosa KCCM 11328 were obtained from the Korean Culture Center of Microorganisms (KCCM) (Seoul, Korea), and Klebsiella pneumonia NCCP 16054 was obtained from the National Culture Collection for Pathogens (NCCP) (Osong, Korea). In” for “In”
# as §2
# CRAB 12006 = assay: Crystal violet biofilm inhibition; assay type: cell-based, A. baumannii; settings: 0-32 μM, 16 h
# Description: A crystal-violet-based assay was used to investigate the biofilm inhibition ability of R-Pro9-3D against A. baumannii standard bacteria and a CRAB 12006 line. […] Thereafter, bacterial cells were fixed with methanol (100%, 15 minutes) and then stained with crystal violet (0.1% (w/v) in 0.25% (v/v) acetic acid for 1 hour). The plate was washed with distilled H2O, dried and dissolved in ethanol (100% v/v). Color development, which indicates the extent of biofilm, was measured at 595 nm and expressed as biofilm formation percentage.
# [3] = system: Acinetobacter baumannii KCCM 40203; assay: MIC, broth dilution; assay type: cell-based; settings: standard Gram-negative bacteria, 16 hours
# Excerpt: as §1, with “Among the bacterial strains used in the experiment, Escherichia coli KCTC 1682 was obtained from the Korean Collection for Type Cultures (KCTC) (Jeongeup, Korea), Acinetobacter baumannii KCCM 40203 and Pseudomonas aeruginosa KCCM 11328 were obtained from the Korean Culture Center of Microorganisms (KCCM) (Seoul, Korea), and Klebsiella pneumonia NCCP 16054 was obtained from the National Culture Collection for Pathogens (NCCP) (Osong, Korea). In” for “In”
# as §2
# [4] = system: Pseudomonas aeruginosa KCCM 11328; assay: MIC, broth dilution; assay type: cell-based; settings: standard Gram-negative bacteria, 16 hours
# Excerpt: as §1, with “Among the bacterial strains used in the experiment, Escherichia coli KCTC 1682 was obtained from the Korean Collection for Type Cultures (KCTC) (Jeongeup, Korea), Acinetobacter baumannii KCCM 40203 and Pseudomonas aeruginosa KCCM 11328 were obtained from the Korean Culture Center of Microorganisms (KCCM) (Seoul, Korea), and Klebsiella pneumonia NCCP 16054 was obtained from the National Culture Collection for Pathogens (NCCP) (Osong, Korea). In” for “In”
# as §2
# [5] = system: Klebsiella pneumonia NCCP 16054; assay: MIC, broth dilution; assay type: cell-based; settings: standard Gram-negative bacteria, 16 hours
# Excerpt: as §1, with “Among the bacterial strains used in the experiment, Escherichia coli KCTC 1682 was obtained from the Korean Collection for Type Cultures (KCTC) (Jeongeup, Korea), Acinetobacter baumannii KCCM 40203 and Pseudomonas aeruginosa KCCM 11328 were obtained from the Korean Culture Center of Microorganisms (KCCM) (Seoul, Korea), and Klebsiella pneumonia NCCP 16054 was obtained from the National Culture Collection for Pathogens (NCCP) (Osong, Korea). In” for “In”
# as §2
# [6] = system: carbapenem-resistant Klebsiella pneumonia NCCP 15782 (CRKP 15782); assay: MIC, broth dilution; assay type: cell-based; settings: 16 hours
# Excerpt: as §1, with “Among the bacterial strains used in the experiment, Escherichia coli KCTC 1682 was obtained from the Korean Collection for Type Cultures (KCTC) (Jeongeup, Korea), Acinetobacter baumannii KCCM 40203 and Pseudomonas aeruginosa KCCM 11328 were obtained from the Korean Culture Center of Microorganisms (KCCM) (Seoul, Korea), and Klebsiella pneumonia NCCP 16054 was obtained from the National Culture Collection for Pathogens (NCCP) (Osong, Korea). In” for “In”
# as §2
# intact CRAB bacteria = assay: diSC3-5 membrane depolarization; assay type: cell-based, A. baumannii; settings: 4 μM
# Description: Depolarization ability by peptides was measured using a membrane potential-sensitive dye 3,3′-dipropylthiadicarbocyanine iodide (diSC3-5) using intact CRAB bacteria. CRAB cells were washed using a wash buffer (5 mM HEPES, 20 mM glucose, pH 7.4). The cells were resuspended in a dilution buffer (5 mM HEPES, 20 mM glucose, 0.1 M KCl, pH 7.4) and then cultured with a diSC3-5 dye (1 hour). Finally, the fluorescence changes of cells treated with various concentrations of peptides, a negative control (cells with dye) and a positive control (1% Triton X-100) were recorded using a fluorescence spectrophotometer, and the results are expressed as percent depolarization.
# [7] = system: CRAB 12006 (carbapenem-resistant A. baumanii CCARM); assay: MIC, broth dilution; assay type: cell-based, A. baumannii; settings: 16 hours, read-out: Minimal inhibitory concentration (MIC), CRAB 12006
# Excerpt: as §1, with “Among the bacterial strains used in the experiment, Escherichia coli KCTC 1682 was obtained from the Korean Collection for Type Cultures (KCTC) (Jeongeup, Korea), Acinetobacter baumannii KCCM 40203 and Pseudomonas aeruginosa KCCM 11328 were obtained from the Korean Culture Center of Microorganisms (KCCM) (Seoul, Korea), and Klebsiella pneumonia NCCP 16054 was obtained from the National Culture Collection for Pathogens (NCCP) (Osong, Korea). In” for “In”
# as §2
# [8] = system: CRAB 12004 (carbapenem-resistant A. baumanii CCARM); assay: MIC, broth dilution; assay type: cell-based, A. baumannii; settings: 16 hours, read-out: Minimal inhibitory concentration (MIC), CRAB 12004
# Excerpt: as §1, with “Among the bacterial strains used in the experiment, Escherichia coli KCTC 1682 was obtained from the Korean Collection for Type Cultures (KCTC) (Jeongeup, Korea), Acinetobacter baumannii KCCM 40203 and Pseudomonas aeruginosa KCCM 11328 were obtained from the Korean Culture Center of Microorganisms (KCCM) (Seoul, Korea), and Klebsiella pneumonia NCCP 16054 was obtained from the National Culture Collection for Pathogens (NCCP) (Osong, Korea). In” for “In”
# as §2
# [9] = system: CRAB 12005 (carbapenem-resistant A. baumanii CCARM); assay: MIC, broth dilution; assay type: cell-based, A. baumannii; settings: 16 hours, read-out: Minimal inhibitory concentration (MIC), CRAB 12005
# Excerpt: as §1, with “Among the bacterial strains used in the experiment, Escherichia coli KCTC 1682 was obtained from the Korean Collection for Type Cultures (KCTC) (Jeongeup, Korea), Acinetobacter baumannii KCCM 40203 and Pseudomonas aeruginosa KCCM 11328 were obtained from the Korean Culture Center of Microorganisms (KCCM) (Seoul, Korea), and Klebsiella pneumonia NCCP 16054 was obtained from the National Culture Collection for Pathogens (NCCP) (Osong, Korea). In” for “In”
# as §2
"MIC ([1]; Escherichia coli, KCTC1682) [µM]",MIC ([2]; Escherichia coli) [µM],Compound,"Biofilm formation inhibition, CRAB 12006 (CRAB 12006)","Minimal inhibitory concentration (MIC), A. baumannii [3] [µM]","Minimal inhibitory concentration (MIC), P. aeruginosa [4] [µM]","Minimal inhibitory concentration (MIC), K. pneumonia [5] [µM]","Minimal inhibitory concentration (MIC), CRKP 15782 [6] [µM]",MIC [1] [µM],MIC [2] [µM],Depolarization (intact CRAB bacteria) [%],MIC [7] [µM],MIC [8] [µM],MIC [9] [µM]
0.25,8,C[C@@H](O)[C@H]1C(=O)N2C(C(=O)O)=C(S[C@@H]3CN[C@H](C(=O)N(C)C)C3)[C@H](C)[C@H]12 [Meropenem],remarkably lower,–,–,–,–,–,–,–,–,–,–
–,–,CC[C@H](C)[C@H](NC(=O)CN)C(=O)NCC(=O)N[C@@H](C)C(=O)N[C@H](C(=O)N[C@@H](CC(C)C)C(=O)N[C@@H](CCCCN)C(=O)N[C@H](C(=O)N[C@@H](CC(C)C)C(=O)N[C@H](C(=O)N[C@H](C(=O)NCC(=O)N[C@@H](CC(C)C)C(=O)N1CCC[C@H]1C(=O)N[C@@H](C)C(=O)N[C@@H](CC(C)C)C(=O)N[C@H](C(=O)N[C@@H](CO)C(=O)N[C@@H](Cc1c[nH]c2ccccc12)C(=O)N[C@H](C(=O)N[C@@H](CCCCN)C(=O)N[C@@H](CCCNC(=N)N)C(=O)N[C@@H](CCCCN)C(=O)N[C@@H](CCCNC(=N)N)C(=O)N[C@@H](CCC(N)=O)C(=O)N[C@@H](CCC(N)=O)C(N)=O)[C@@H](C)CC)[C@@H](C)CC)[C@@H](C)O)[C@@H](C)O)C(C)C)C(C)C [Melittin],–,4,16,32,32,8,8,75.6,4,4,4
